Assay results from PMC10732257 (Oncotarget, 2023).

Experiments:
D1 (dopamine) = biological target: T1, D1 (dopamine) (Homo sapiens, UniProt P21728); assay: GPCR agonist action testing; type: cell-based
T1 construct: Wuxi AppTech (contract laboratory)
From the text: (§1) Supplementary Table 2: Results of GPCR agonist action testing of GFH009 administered at a
(§2) Agonist action against GPCR type shown below
(§3) Target % Agonist Effect @ Max Dose
(§4) M1 (muscarinic Ach) −2.18
(§5) M2 (muscarinic Ach) −0.63

V1A (vasopressin) = V1A (vasopressin) (Homo sapiens, UniProt P37288); assay: GPCR agonist action testing; type: cell-based
From the text: as §1, §2, §3, §4, §5

5-HT2B (serotonin) = biological target: T2, 5-HT2B (serotonin) (Homo sapiens, UniProt P41595); assay: GPCR agonist action testing; type: cell-based
T2 construct: Wuxi AppTech (Shanghai, China)
From the text: as §1, §2, §3, §4, §5

H1 (histamine) = biological target: T3, H1 (histamine) (Homo sapiens, UniProt P35367); assay: GPCR agonist action testing; type: cell-based
T3 construct: Wuxi AppTech (contract laboratory)
From the text: as §1, §2, §3, §4, §5

op-k (opioid) = op-k (opioid) (Homo sapiens, UniProt P41145); assay: GPCR agonist action testing; type: cell-based
From the text: as §1, §2, §3, §4, §5

M1 (muscarinic Ach) = M1 (muscarinic Ach) (Homo sapiens, UniProt P11229); assay: GPCR agonist action testing; type: cell-based
From the text: as §1, §2, §3, §4, §5

ETA (endothelin) = biological target: T4, ETA (endothelin) (Homo sapiens, UniProt P25101); assay: GPCR agonist action testing; type: cell-based
T4 construct: Wuxi AppTech (contract laboratory)
From the text: as §1, §2, §3, §4, §5

a2a (adrenoceptor) = biological target: T5, a2a (adrenoceptor) (Homo sapiens, UniProt P08913); assay: GPCR agonist action testing; type: cell-based
T5 construct: Wuxi AppTech (contract laboratory)
From the text: as §1, §2, §3, §4, §5

H2 (histamine) = H2 (histamine) (Homo sapiens, UniProt P25021); assay: GPCR agonist action testing; type: cell-based
From the text: as §1, §2, §3, §4, §5

CB2 (cannabinoid) = biological target: T6, CB2 (cannabinoid) (Homo sapiens, UniProt P34972); assay: GPCR agonist action testing; type: cell-based
T6 construct: Wuxi AppTech (contract laboratory)
From the text: as §1, §2, §3, §4, §5

CCKa = biological target: T7, CCKa (Homo sapiens, UniProt P32238); assay: GPCR agonist action testing; type: cell-based
T7 construct: Wuxi AppTech (contract laboratory)
From the text: as §1, §2, §3, §4, §5

b2 (adrenoceptor) = biological target: T8, b2 (adrenoceptor) (Homo sapiens, UniProt P07550); assay: GPCR agonist action testing; type: cell-based
T8 construct: Wuxi AppTech (contract laboratory)
From the text: as §1, §2, §3, §4, §5

op-d (opioid) = op-d (opioid) (Homo sapiens, UniProt P41143); assay: GPCR agonist action testing; type: cell-based
From the text: as §1, §2, §3, §4, §5

CDK5/p35 = biological target: T9, CDK5/p35 (Homo sapiens, UniProt Q00535); assay: CDK family off-target kinase activity (Eurofins); type: biochemical
T9 construct: purchased Eurofins Pharma Discovery Services UK Ltd
Method: (§6) GFH009 inhibition activity against the CDK9/cyclin T1 complex as well as off-target CDK family reactivity were assayed by Eurofins Pharma Discovery Services UK Ltd., (Dundee, UK). Determination of off-target inhibition of other kinases was conducted by DiscoverX LeadHunter Discovery Services (Freemont, CA, USA.) GFH009 reactivity to GPCR family members was assayed by Wuxi AppTech (Shanghai, China).
(§7) The pharmacodynamic and mechanistic foundation for the
(§8) CDK9 inhibitor for the treatment of hematologic malignancies
(§9) Supplementary Table 1: Inhibitory action of GFH009 on other CDK family members
(§10) Various CDK/ Remaining enzymatic activity (%) after
(§11) cognate cyclin pairs tested exposure to GFH009 at a concentration of Selectivity vs. CDK9
(§12) (also on this page, place not known: www.oncotarget.com Oncotarget, Materials Supplementary)
(§13) (1 picture or pasted object on this page, not shown here)

CDK14/cyclin Y = biological target: T10, CDK14/cyclin Y (Homo sapiens, UniProt O94921); assay: CDK family off-target kinase activity (Eurofins); type: biochemical
T10 construct: purchased Eurofins Pharma Discovery Services UK Ltd
Method: as §6, §7, §8, §9, §10, §11, §12, §13

CDK18/cyclin Y = biological target: T11, CDK18/cyclin Y (Homo sapiens, UniProt Q07002); assay: CDK family off-target kinase activity (Eurofins); type: biochemical
T11 construct: purchased Eurofins Pharma Discovery Services UK Ltd
Method: as §6, §7, §8, §9, §10, §11, §12, §13

CDK2/cyclin A = biological target: T12, CDK2/cyclin A (Homo sapiens, UniProt P24941); assay: CDK family off-target kinase activity (Eurofins); type: biochemical
T12 construct: purchased Eurofins Pharma Discovery Services UK Ltd
Method: as §6, §7, §8, §9, §10, §11, §12, §13

CDK4/cyclin D3 = biological target: T13, CDK4/cyclin D3 (Homo sapiens, UniProt P11802); assay: CDK family off-target kinase activity (Eurofins); type: biochemical
T13 construct: purchased Eurofins Pharma Discovery Services UK Ltd
Method: as §6, §7, §8, §9, §10, §11, §12, §13

CDK5/p25 = biological target: T14, CDK5/p25 (Homo sapiens, UniProt Q00535); assay: CDK family off-target kinase activity (Eurofins); type: biochemical
T14 construct: purchased Eurofins Pharma Discovery Services UK Ltd
Method: as §6, §7, §8, §9, §10, §11, §12, §13

CDK7/cyclin H/MAT1 = biological target: T15, CDK7/cyclin H/MAT1 (Homo sapiens, UniProt P50613); assay: CDK family off-target kinase activity (Eurofins); type: biochemical
T15 construct: purchased Eurofins Pharma Discovery Services UK Ltd
Method: as §6, §7, §8, §9, §10, §11, §12, §13

CDK17/cyclin Y = biological target: T16, CDK17/cyclin Y (Homo sapiens, UniProt Q00537); assay: CDK family off-target kinase activity (Eurofins); type: biochemical
T16 construct: purchased Eurofins Pharma Discovery Services UK Ltd
Method: as §6, §7, §8, §9, §10, §11, §12, §13

MV-4-11 = assay: Apoptosis by Annexin V/PI double staining, flow cytometry; type: cell-based, human; conditions: 6-hour treatment, DMSO control 6.4 ± 0.1%
Method: Figure 5 Apoptotic activity of GFH009 in human malignancy cell lines. Four cell lines, MV-4-11 (A), HL-60 (B), U937 (C), and NCI-H929 (D) were treated with different concentrations of GFH009 or enitociclib for 6 hours and harvested for cell apoptosis analysis using Annexin V/PI double staining. Data are presented as mean (SD) from multiple independent experiments. ^* P < 0.05, ^*** P < 0.001, ^**** P < 0.0001, one-way ANOVA with Dunnett’s test analysis compared to DMSO control group.
Initiation of apoptosis by GFH009 was assayed in multiple human cell lines, including MV-4-11, HL-60, U937, and NCI-H929. Cells were incubated at 37°C and 5% CO2 for 6 hours at final concentrations of 1 μM, 0.3 μM, 0.1 μM, 0.03 μM, and 0.01 μM for both GFH009 and Enitociclib. After drug treatment, cells were collected, and apoptosis determined using Annexin V-FITC and propidium iodide (PI) staining (Becton, Dickinson and Co, Franklin Lakes, NJ, USA). Samples were examined using an Attune NxT Flow Cytometer (Thermo Fisher Scientific, Waltham, MA, USA) within 1 hour of staining and analyzed using FlowJo vX.0.7 software. The apoptotic rate between groups was statistically compared by means of one-way ANOVA (Dunnett’s multiple comparisons test). Differences from the dimethyl sulfoxide (DMSO)-only treated control group was considered statistically significant at a P value of < 0.05. All plotting and statistical analysis were conducted using the Prism GraphPad 6 for Windows v6.01.

T16 sequence (Q00537 whole entry): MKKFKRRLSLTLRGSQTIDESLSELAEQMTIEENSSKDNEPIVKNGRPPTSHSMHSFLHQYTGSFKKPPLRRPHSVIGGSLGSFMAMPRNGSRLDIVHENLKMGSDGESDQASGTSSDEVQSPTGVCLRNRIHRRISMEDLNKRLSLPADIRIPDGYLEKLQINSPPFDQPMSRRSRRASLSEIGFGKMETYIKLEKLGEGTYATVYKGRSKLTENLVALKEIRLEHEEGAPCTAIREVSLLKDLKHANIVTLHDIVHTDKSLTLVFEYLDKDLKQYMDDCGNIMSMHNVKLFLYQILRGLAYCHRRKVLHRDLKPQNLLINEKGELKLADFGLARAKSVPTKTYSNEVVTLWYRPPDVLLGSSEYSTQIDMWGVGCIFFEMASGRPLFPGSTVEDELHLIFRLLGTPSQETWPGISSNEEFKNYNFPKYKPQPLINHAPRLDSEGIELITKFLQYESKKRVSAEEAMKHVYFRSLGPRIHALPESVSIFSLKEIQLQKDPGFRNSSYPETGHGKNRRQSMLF
T16 sequence (Q8ND76 whole entry partner): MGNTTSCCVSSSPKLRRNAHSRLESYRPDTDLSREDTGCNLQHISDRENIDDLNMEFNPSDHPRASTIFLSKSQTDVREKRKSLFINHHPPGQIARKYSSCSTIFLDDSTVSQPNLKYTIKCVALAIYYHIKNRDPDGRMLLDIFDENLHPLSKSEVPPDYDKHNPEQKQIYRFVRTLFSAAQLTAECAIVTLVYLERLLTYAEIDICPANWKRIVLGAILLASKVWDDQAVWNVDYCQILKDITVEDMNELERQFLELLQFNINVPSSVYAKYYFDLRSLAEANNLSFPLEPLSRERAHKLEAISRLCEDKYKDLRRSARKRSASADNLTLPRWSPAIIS
T14 sequence (Q00535 whole entry): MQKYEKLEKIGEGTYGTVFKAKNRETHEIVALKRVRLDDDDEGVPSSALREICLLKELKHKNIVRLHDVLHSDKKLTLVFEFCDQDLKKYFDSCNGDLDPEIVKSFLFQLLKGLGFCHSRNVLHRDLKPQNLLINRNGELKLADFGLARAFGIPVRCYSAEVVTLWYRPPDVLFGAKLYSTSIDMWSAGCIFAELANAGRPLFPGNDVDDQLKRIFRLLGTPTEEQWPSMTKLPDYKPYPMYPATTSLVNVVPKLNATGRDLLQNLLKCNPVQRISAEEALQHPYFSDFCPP
T14 sequence (Q15078 99-307 partner limits assumed): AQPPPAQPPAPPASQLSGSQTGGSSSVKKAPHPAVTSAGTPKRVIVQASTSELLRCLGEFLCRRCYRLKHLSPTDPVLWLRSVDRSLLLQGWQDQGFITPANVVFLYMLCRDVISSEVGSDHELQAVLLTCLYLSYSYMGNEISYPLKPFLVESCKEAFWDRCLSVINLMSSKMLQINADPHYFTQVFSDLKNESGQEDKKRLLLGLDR
T9 sequence (Q00535 whole entry): as the sequence (Q00535 whole entry) above
T9 sequence (Q15078 2-307 partner limits assumed): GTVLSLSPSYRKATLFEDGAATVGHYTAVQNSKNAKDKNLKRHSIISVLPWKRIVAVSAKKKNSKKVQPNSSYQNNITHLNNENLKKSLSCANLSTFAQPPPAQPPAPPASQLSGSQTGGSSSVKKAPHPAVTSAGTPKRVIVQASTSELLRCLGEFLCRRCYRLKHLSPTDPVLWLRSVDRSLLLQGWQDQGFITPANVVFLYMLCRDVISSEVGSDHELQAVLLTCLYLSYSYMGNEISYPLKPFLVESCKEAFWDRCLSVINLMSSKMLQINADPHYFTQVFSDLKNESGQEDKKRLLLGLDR
T11 sequence (Q07002 whole entry): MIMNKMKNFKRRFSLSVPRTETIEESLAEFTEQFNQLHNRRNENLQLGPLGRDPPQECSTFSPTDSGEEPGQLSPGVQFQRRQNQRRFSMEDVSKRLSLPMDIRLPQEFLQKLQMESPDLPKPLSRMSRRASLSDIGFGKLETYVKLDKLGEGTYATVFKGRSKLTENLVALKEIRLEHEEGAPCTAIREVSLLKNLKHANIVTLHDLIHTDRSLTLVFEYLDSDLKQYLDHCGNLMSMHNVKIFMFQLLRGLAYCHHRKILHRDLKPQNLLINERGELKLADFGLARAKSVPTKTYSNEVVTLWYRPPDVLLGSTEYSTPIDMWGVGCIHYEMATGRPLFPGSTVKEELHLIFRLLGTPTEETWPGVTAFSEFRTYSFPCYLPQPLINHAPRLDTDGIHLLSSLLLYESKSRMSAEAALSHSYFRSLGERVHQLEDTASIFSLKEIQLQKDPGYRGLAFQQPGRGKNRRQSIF
T11 sequence (Q8ND76 whole entry partner): as the sequence (Q8ND76 whole entry partner) above
T15 sequence (P50613 whole entry): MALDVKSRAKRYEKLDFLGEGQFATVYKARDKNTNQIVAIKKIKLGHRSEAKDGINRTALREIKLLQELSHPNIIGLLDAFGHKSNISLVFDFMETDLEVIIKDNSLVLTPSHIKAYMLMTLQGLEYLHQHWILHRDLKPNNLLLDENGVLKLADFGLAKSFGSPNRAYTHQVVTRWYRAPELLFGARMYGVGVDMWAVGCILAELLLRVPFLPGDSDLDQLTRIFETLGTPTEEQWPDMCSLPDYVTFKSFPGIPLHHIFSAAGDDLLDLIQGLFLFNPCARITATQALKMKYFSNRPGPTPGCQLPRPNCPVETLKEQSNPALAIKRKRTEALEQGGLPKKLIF
T15 sequence (P51946 whole entry partner): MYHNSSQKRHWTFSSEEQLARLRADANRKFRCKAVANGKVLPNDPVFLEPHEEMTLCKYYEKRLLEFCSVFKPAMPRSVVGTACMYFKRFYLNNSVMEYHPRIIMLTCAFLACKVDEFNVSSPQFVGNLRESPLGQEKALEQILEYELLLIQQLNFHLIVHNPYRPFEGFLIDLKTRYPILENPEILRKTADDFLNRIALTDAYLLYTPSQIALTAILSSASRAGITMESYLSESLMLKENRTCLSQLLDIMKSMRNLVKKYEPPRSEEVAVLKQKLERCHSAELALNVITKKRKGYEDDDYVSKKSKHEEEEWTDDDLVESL
T15 sequence (P51948 whole entry partner): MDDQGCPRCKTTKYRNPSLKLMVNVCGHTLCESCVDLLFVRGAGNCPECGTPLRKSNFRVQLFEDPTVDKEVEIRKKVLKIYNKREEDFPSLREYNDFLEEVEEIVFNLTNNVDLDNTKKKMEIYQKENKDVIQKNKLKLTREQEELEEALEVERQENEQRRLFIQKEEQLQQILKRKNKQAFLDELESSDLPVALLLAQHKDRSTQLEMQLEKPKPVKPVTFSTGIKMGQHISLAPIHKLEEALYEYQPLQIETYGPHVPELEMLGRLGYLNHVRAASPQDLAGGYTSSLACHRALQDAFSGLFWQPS
T13 sequence (P11802 whole entry): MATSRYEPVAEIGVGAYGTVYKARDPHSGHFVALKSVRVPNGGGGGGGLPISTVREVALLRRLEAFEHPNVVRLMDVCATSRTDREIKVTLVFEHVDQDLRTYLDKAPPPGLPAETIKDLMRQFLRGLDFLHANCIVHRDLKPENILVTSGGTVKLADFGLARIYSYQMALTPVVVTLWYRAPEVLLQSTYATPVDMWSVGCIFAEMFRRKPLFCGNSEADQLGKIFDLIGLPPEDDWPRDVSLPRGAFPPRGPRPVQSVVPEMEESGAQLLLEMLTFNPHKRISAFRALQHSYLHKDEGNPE
T13 sequence (P30281 whole entry partner): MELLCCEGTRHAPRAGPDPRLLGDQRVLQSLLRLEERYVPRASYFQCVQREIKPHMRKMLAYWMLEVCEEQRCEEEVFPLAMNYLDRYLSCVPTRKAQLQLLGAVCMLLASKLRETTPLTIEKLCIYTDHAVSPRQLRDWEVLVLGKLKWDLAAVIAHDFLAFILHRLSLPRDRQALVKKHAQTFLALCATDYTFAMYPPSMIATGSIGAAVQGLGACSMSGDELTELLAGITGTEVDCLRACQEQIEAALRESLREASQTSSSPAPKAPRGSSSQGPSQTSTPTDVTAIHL
T10 sequence (O94921 whole entry): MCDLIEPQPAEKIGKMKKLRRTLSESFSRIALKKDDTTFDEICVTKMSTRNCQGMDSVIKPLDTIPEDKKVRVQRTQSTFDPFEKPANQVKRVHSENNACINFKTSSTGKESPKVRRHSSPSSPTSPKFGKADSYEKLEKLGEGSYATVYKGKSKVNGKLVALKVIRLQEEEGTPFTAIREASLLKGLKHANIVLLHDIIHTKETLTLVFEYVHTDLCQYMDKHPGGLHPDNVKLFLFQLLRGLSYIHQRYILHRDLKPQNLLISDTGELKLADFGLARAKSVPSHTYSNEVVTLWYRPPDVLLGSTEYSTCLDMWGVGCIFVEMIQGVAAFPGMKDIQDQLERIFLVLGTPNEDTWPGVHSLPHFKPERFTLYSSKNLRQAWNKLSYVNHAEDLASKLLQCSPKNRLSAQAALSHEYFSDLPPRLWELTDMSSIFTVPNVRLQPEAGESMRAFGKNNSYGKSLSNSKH
T10 sequence (Q8ND76 whole entry partner): as the sequence (Q8ND76 whole entry partner) above

SMILES: COC[C@@H](C)NC1CCC(Nc2cc(-c3csc(NCC4(C#N)CCOCC4)n3)c(Cl)cn2)CC1 (stereo partly drawn) [GFH009]
- % Agonist Effect @ Max Dose (12 µM) (D1 (dopamine)): −1.49%
- % Agonist Effect @ Max Dose (12 µM) (V1A (vasopressin)): 0.59%
- % Agonist Effect @ Max Dose (12 µM) (5-HT2B (serotonin)): 4.55%
- % Agonist Effect @ Max Dose (12 µM) (H1 (histamine)): 1.55%
- % Agonist Effect @ Max Dose (12 µM) (op-k (opioid)): 21.57%
- % Agonist Effect @ Max Dose (12 µM) (M1 (muscarinic Ach)): −2.18%
- % Agonist Effect @ Max Dose (12 µM) (ETA (endothelin)): −0.08%
- % Agonist Effect @ Max Dose (12 µM) (a2a (adrenoceptor)): −3.87%
- % Agonist Effect @ Max Dose (12 µM) (H2 (histamine)): −0.03%
- % Agonist Effect @ Max Dose (12 µM) (CB2 (cannabinoid)): 0.23%
- % Agonist Effect @ Max Dose (12 µM) (CCKa): −0.4%
- % Agonist Effect @ Max Dose (12 µM) (b2 (adrenoceptor)): −0.6%
- % Agonist Effect @ Max Dose (12 µM) (op-d (opioid)): −0.98%
- Selectivity vs. CDK9 (CDK5/p35): > 100
- Remaining enzymatic activity (%) after exposure to GFH009 (CDK5/p35; 1 µM): 66%
- Remaining enzymatic activity (%) after exposure to GFH009 (CDK5/p35; 10 µM): 43%
- Selectivity vs. CDK9 (CDK14/cyclin Y): > 100
- Remaining enzymatic activity (%) after exposure to GFH009 (CDK14/cyclin Y; 1 µM): 70%
- Remaining enzymatic activity (%) after exposure to GFH009 (CDK14/cyclin Y; 10 µM): 39%
- Selectivity vs. CDK9 (CDK18/cyclin Y): > 100
- Remaining enzymatic activity (%) after exposure to GFH009 (CDK18/cyclin Y; 1 µM): 53%
- Remaining enzymatic activity (%) after exposure to GFH009 (CDK18/cyclin Y; 10 µM): 12%
- Selectivity vs. CDK9 (CDK2/cyclin A): > 1000
- Remaining enzymatic activity (%) after exposure to GFH009 (CDK2/cyclin A; 1 µM): 80%
- Remaining enzymatic activity (%) after exposure to GFH009 (CDK2/cyclin A; 10 µM): 51%
- Selectivity vs. CDK9 (CDK4/cyclin D3): > 100
- Remaining enzymatic activity (%) after exposure to GFH009 (CDK4/cyclin D3; 1 µM): 70%
- Remaining enzymatic activity (%) after exposure to GFH009 (CDK4/cyclin D3; 10 µM): 41%
- Selectivity vs. CDK9 (CDK5/p25): > 100
- Remaining enzymatic activity (%) after exposure to GFH009 (CDK5/p25; 1 µM): 79%
- Remaining enzymatic activity (%) after exposure to GFH009 (CDK5/p25; 10 µM): 43%
- Selectivity vs. CDK9 (CDK7/cyclin H/MAT1): > 100
- Remaining enzymatic activity (%) after exposure to GFH009 (CDK7/cyclin H/MAT1; 1 µM): 67%
- Remaining enzymatic activity (%) after exposure to GFH009 (CDK7/cyclin H/MAT1; 10 µM): 19%
- Selectivity vs. CDK9 (CDK17/cyclin Y): < 100
- Remaining enzymatic activity (%) after exposure to GFH009 (CDK17/cyclin Y; 1 µM): 30%
- Remaining enzymatic activity (%) after exposure to GFH009 (CDK17/cyclin Y; 10 µM): 7%
- Apoptosis rate (MV-4-11; 0.01 μM): 6.3 ± 0.1%
- Apoptosis rate (MV-4-11; 0.03 μM): 7.4 ± 0.3%
- Apoptosis rate (MV-4-11; 0.1 μM): 38.1 ± 0.1%
- Apoptosis rate (MV-4-11; 0.3 μM): 67.4 ± 1.0%
- Apoptosis rate (MV-4-11; 1 μM): 61.2 ± 0.3%
